By IC50 is commonly meant the midpoint of a concentration-inhibition curve. As a reminder, the melting point is the temperature of the solid-liquid transition.

One data set has as its system L. donovani. Nature of the data set: In vivo visceral leishmaniasis BALB/c mouse model: liver and spleen parasite burden (LDUs). Also noted: species or system BALB/c mice. To be noted: for LDUs (Liver): subcutaneous, 4 days from day 7; for LDUs (Liver) / LDUs (Spleen): 14 days post infection, n=2; for Parasite Suppression (%)--Liver (reduction in parasite burden) / Parasite Suppression (%)--Spleen (reduction in parasite burden) / increase in parasite burden (spleen): compared to untreated controls. On the procedure:
Balb/c mice 10-11 weeks old were infected with L. donovani inoculated subcutaneously (SC) at the base of the tail (maximum 0.2 ml) with 1×10^6 freshly harvested promastigotes. These represented a VL model which has been described previously (Yardley and Croft, 1999). After infection, mice were marked for individual identification and randomly allocated into groups of two. Seven days after infection, a mouse was sacrificed, and parasitic burden assessed based on microscopic enumeration of amastigotes (Leishman donovan bodies) against host cell nuclei on liver and spleen impression smears (Stauber et al., 1958). Blood was collected through cardiac puncture for use in all serum based assays.
Dosing began on the seventh day post-infection for 4 continuous days. […] Dosing was administered subcutaneously at the base of the tail.
It includes the different groups of mice and the concentrations of compounds used for the treatment of infections. A Representation of infections and treatments of BALB/c Mice is in Table 2. All mice were infected with 10^6 log phase promastigotes in PBS. In each group with different concentrations, there were two mice (n=2). […] The positive controls that were infected but were not treated with any drug except PBS, and the negative controls that were not infected with the parasites, but injected with only PBS.
The efficacy of compounds was assessed by microscopically determining the reduction in amastigotes burden Leishman donovan bodies (LDBs) within the liver and spleen. Impression smears were taken 14 days post infection (7 days after the start of treatment). Mice liver and spleen imprints were made by touching a freshly cut surface of the mice liver and spleen many times with a Poly-L-Lysine coated slide. The slides were air dried, fixed in “Diff Quick” fixative for 30 seconds, drained, stained with “Quick Diff” solution II for 30 seconds, drained, and then finally counterstaining with “Diff Quick” solution I for 30 seconds and then drained. Slides were rinsed in tap water to remove excess stain and rapidly dehydrated in absolute alcohol. Slides were examined by light microscopy, using ×1000 oil immersion. LDBs were determined by dividing the number of LDBs/number of cells nuclei x weight of organ in milligrams. This gave the number of “Leishman donovan units” (LDUs).
The purpose of the test was to evaluate splenic and liver parasite burden after treatment with selected compounds. This was done by making imprints and calculating the number of Leishman Donovan Units (LDUs) in cells. LDUs are calculated by counting the number of parasites per cell nuclei (number of amastigotes in cells÷number of cells) multiplied by the weight of the organ in milligrams. […] Effectiveness of compounds in the treatment of VL is expressed as LDU numbers and as percent increases or percent decrease in LDUs. Percent increase in LDU means that the number of parasites increased compared to the untreated controls and percent decrease means that the number of parasites decreased compared to the untreated controls.

The test system of the next data set is serum IgG. As to the kind of experiment: Seroprevalence of L. donovani-specific serum IgG (ELISA) in infected BALB/c mice. The data set is classed as in vivo. To be noted: serum 14 days post-infection. As to the method: To make L. donovani crude antigens, L. donovani promastigotes and amastigotes were counted using a hemocytometer, spun at 800×g for 10 min, and washed three times with 1× phosphate buffered saline (PBS). After the final wash, parasites were resuspended in 1×PBS at a concentration of 1×10^8 promastigotes (amastigotes)/ml and lysed by 5 freeze and thaw cycles or by sonication at maximum speed for 5 cycles of 10 seconds with cooling, and frozen at −80° C. until needed for assay (Burns et al., 1993; Zijlstra et al., 1998). Protein concentration was determined by the BIORAD assay.
5 μg/ml of antigen in 100 mM carbonate-bicarbonate buffer […], were added to the wells of a 96 well polyvinyl plate (100 μl/well) and incubated at room temperature for 1 hr or overnight at 4° C. Wells were emptied, blocking buffer was added (200 μl/well), and wells were incubated at room temperature for 1 hr. Wells were emptied and 50 or 100 μl/well of diluted samples added (5× mice serum), and incubated for 1.5-2 hrs. Plates were washed 4× and an anti-mouse-IgG was diluted 1:500, and added (100 μl/well); these plates were incubated for 30 min in the dark and secondary antibody tagged to HRP was added at a dilution of 1:500. TMB-HRP developer was added 100 μl/well for 30 min in the dark and plates were read at 630 nm on a spectrophotometer (Zijlstra et al., 1998).
The purpose of the test was to confirm positive infectivity through levels of serum IgG in infected BALB/c mice. A high serum IgG level is predictive of an infection with visceral leishmaniasis. The results are expressed as percent increase or percent decrease in IgG levels. Four compounds with three different concentrations each were used for the tests.
Serum levels of IgG in infected but untreated mice increased by 20.36% compared to that of uninfected mice. […] Specific-parasite IgG antibodies produced by BALB/c mice inoculated with 10^6 infective concentrations of Leishmania donovani. Mice (n=2 per group) were infected subcutaneously at the base of their tail with log phase promastigotes. […] Serum from mice was obtained fourteen days post-infection and tested individually by ELISA to determine the specific levels of L. donovani IgG. Bars indicate the mean±S.E. (Standard Error) from two mice.

Data set [1] has as its system L. donovani promastigotes. Nature of the data set: Antileishmanial activity on L. donovani promastigotes (resazurin cell viability assay). The format is cell-based, Leishmania donovani. To be noted: for IC50: resazurin assay, 0.03 to 44 μM, means ± S.E. of three experiments; for SI Values Promastigotes: SI = IC50 (mouse fibroblast) ÷ IC50 (promastigotes). As to the method: Approximately 5×10^5 promastigotes/ml of L. donovani Khartum strain were inoculated into Yeager's Liver infusion tryptose (YLIT) medium or Brain Heart Infusion (BHI) broth (Difco), supplemented with glucose (2.5 mg/ml), 50 U/ml Pen-Strep and 0.005 mM Hemin at 25-26° C. and subcultured bi-weekly, Mikus et al., Parasitol Int., 48(3):265-9 (2000) (Mikus and Steverding, 2000).
The Leishmanicidal properties of fifteen naphthoquinone compounds (FIG. 1) on L. donovani promastigotes proliferation were assessed by the resazurin cell viability assay. Promastigotes from axenic culture were harvested during the exponential phase of growth (at least 5-day old culture), incubated at a concentration of 2×10^5 cells/200 μl with and without dilutions of compounds in 96-well microtitre plates. Dilutions of compounds covering 0.03 μM to 44 μM were prepared. […] 20 μl Alamar Blue (12.5 mg resazurin dissolved in 100 ml distilled water (Sigma #R7017)) (Mikes and Steverding, 2000) were added to each well and plates were incubated for another 2 hrs. […] Decrease in fluorescence (inhibition), were expressed as percentage of the fluorescence of control cultures and were plotted against the concentrations of compounds. The IC50 values were calculated from the sigmoidal inhibition curves.
(In general: Alamar Blue is a resazurin reagent that responds to reducing activity.)

[2] abbreviates: 20 mg/kg total dose, listed as Amphotericin B.
Setting [3] is: Leishmania donovani, read-out: IC50 (μM) Promastigotes, L. donovani promastigotes.

Values joined by “and” are separate entries in the source; they are usually repeats but may differ in a detail not shown here. Equal entries are not always repeated. Where two headings read alike, the source gives them in different places.

As for `C[C@@H]1[C@H](O)[C@@H](C)/C=C/C=C/C=C/C=C/C=C/C=C/C=C/[C@H](O[C@@H]2O[C@H](C)[C@@H](O)[C@H](N)[C@@H]2O)C[C@@H]2O[C@](O)(C[C@@H](O)C[C@@H](O)[C@H](O)CC[C@@H](O)C[C@@H](O)CC(=O)O[C@H]1C)C[C@H](O)[C@H]2C(=O)O` [Am. B., Amphotericin B, reference compound], the “LDUs (Liver)” value with L. donovani (20 mg/kg total dose) was determined as 5681.0 ± 1868 LDUs; in the data set on L. donovani (setting [2]) it was 5823.8 LDUs. The figures for the “LDUs (Spleen)” value in the data set on L. donovani (20 mg/kg total dose) and in the data set on L. donovani (setting [2]) were 402.3 ± 30 LDUs and 402.0±30 LDUs, respectively. In addition, the “Parasite Suppression (%)--Liver (reduction in parasite burden)” value with L. donovani (20 mg/kg) turned out to be 33.47%. Besides, the “Parasite Suppression (%)--Spleen (reduction in parasite burden)” value in the data set on L. donovani (20 mg/kg) amounted to 35.74%; in the data set with L. donovani (20 mg/kg, listed as Amphotericin B), 33.0%. The “IgG Increase (%)” value in the data set on serum IgG (20 mg/kg) was found to be 24.74%.
On to `NC1=C(Br)C(=O)c2ccccc2C1=O` [IMD8, 2-Amino-3-bromo-1,4-naphthoquinone], for which the “LDUs (Liver)” value amounted to 4752.5±293 LDUs in the data set on L. donovani (5 mg/kg total dose), 3099.9±2197 LDUs in the data set with L. donovani (20 mg/kg total dose) and 1869.0±420 LDUs in the data set with L. donovani (50 mg/kg total dose). The “LDUs (Spleen)” value in the data set on L. donovani (5 mg/kg total dose) came out at 585.3±222 LDUs; in the data set with L. donovani (20 mg/kg total dose) it was 297.8±9.5 LDUs; in the data set with L. donovani (50 mg/kg total dose) it was 391.5±96 LDUs. Moreover, the “Parasite Suppression (%)--Liver (reduction in parasite burden)” value with L. donovani (5 mg/kg) is 56.66% and 55.66%; in the data set on L. donovani (20 mg/kg), 44.34%; in the data set with L. donovani (50 mg/kg), 81.89%. Moreover, the “Parasite Suppression (%)--Spleen (reduction in parasite burden)” value is 6.51% with L. donovani (5 mg/kg) and 52.44% in the data set with L. donovani (20 mg/kg). In addition, the IC50 in data set [1] (setting [3]) turned out to be 4.3 µM; in data set [1] (read-out: IC50 (μM) Promastigotes, L. donovani promastigotes), 4.4 ± 0.4 µM. Further, the “SI Values Promastigotes” value in data set [1] is 3301.71±321.1 and 3301.71. In addition, the “IgG Increase (%)” value in the data set on serum IgG (5 mg/kg) worked out at 20.94%; in the data set with serum IgG (20 mg/kg) it was 28.66%; in the data set on serum IgG (50 mg/kg), 23.16%.
Turning to `O=C1C(Cl)=C(N(C(=O)c2cccc(Cl)c2)C(=O)c2cccc(Cl)c2)C(=O)c2ccccc21` [IMDNQ4, 3-Chloro-N-(3-chlorobenzoyl)-N-(3-chloro-1,4-dioxo-1,4-dihydronaphthalen-2-yl)-benzamide], the melting point was in the range of 258 to 260 °C. In the data set on L. donovani (5 mg/kg total dose), the “LDUs (Liver)” value stood at 5823.8±3378 LDUs and the “LDUs (Spleen)” value stood at 433.3±188 LDUs. Also, in the data set on L. donovani (5 mg/kg), the “Parasite Suppression (%)--Liver (reduction in parasite burden)” value is 31.79% and the “Parasite Suppression (%)--Spleen (reduction in parasite burden)” value came out at 30.79%. Moreover, in the data set on L. donovani (20 mg/kg total dose), the “LDUs (Liver)” value is on record as 4266.0±6033 LDUs and the “LDUs (Spleen)” value stood at 770.0±608 LDUs. In addition, in the data set on L. donovani (20 mg/kg), the “Parasite Suppression (%)--Liver (reduction in parasite burden)” value is on record as 50.04%, the “Parasite Suppression (%)--Spleen (reduction in parasite burden)” value was 0% and the “increase in parasite burden (spleen)” value is 18.7%. In addition, in the data set on L. donovani (50 mg/kg total dose), the “LDUs (Liver)” value was 1003.8±1420 LDUs and the “LDUs (Spleen)” value is listed as 780.3±96 LDUs. For the same compound, in the data set with L. donovani (50 mg/kg), the “Parasite Suppression (%)--Liver (reduction in parasite burden)” value was determined as 88.24%, the “Parasite Suppression (%)--Spleen (reduction in parasite burden)” value amounted to 0% and the “increase in parasite burden (spleen)” value turned out to be 19.8%. Further, the IC50 in data set [1] (setting [3]) came out at 6.81 µM. The “SI Values Promastigotes” value in data set [1] was 24.65±12.51 and 24.65. In addition, the “IgG Increase (%)” value with serum IgG (5 mg/kg) was 11.34%. In the data set on serum IgG (20 mg/kg), the “IgG Increase (%)” value came to 6.81%. Also, in the data set on serum IgG (50 mg/kg), the “IgG Increase (%)” value is 26.76%.
As to `CCCC(=O)N(C(=O)CCC)C1=C(Cl)C(=O)c2ccccc2C1=O` [IMDNQ15], the “LDUs (Liver)” value with L. donovani (5 mg/kg total dose) is 2267.5±191 LDUs; in the data set with L. donovani (20 mg/kg total dose) it was 2598.5±89 LDUs and 2598.5 ± 889 LDUs; with L. donovani (50 mg/kg total dose) it was 4618.0 ± 1785 LDUs. In addition, the entries for the “LDUs (Spleen)” value in the data set with L. donovani (5 mg/kg total dose), in the data set with L. donovani (20 mg/kg total dose) and with L. donovani (50 mg/kg total dose) were 315.0±129 LDUs, 363.3±210 LDUs and 213.0±115 LDUs, respectively. For the same compound, the figures for the “Parasite Suppression (%)--Liver (reduction in parasite burden)” value with L. donovani (5 mg/kg), in the data set on L. donovani (20 mg/kg) and in the data set with L. donovani (50 mg/kg) were 73.44%, 69.57% and 45.92%, respectively. The “Parasite Suppression (%)--Spleen (reduction in parasite burden)” value with L. donovani (5 mg/kg) came to 49.68%; in the data set on L. donovani (20 mg/kg), 41.97%; with L. donovani (50 mg/kg) it was 65.97%. Further, the “SI Values Promastigotes” value in data set [1] is 61250.00±438 and 61250.00. Also, the “IgG Increase (%)” value in the data set on serum IgG (5 mg/kg) was determined as 21.79%; in the data set on serum IgG (20 mg/kg), 14.12%; in the data set on serum IgG (50 mg/kg), 30.70%.

For the origin of these results see US20140336187A1, “METHODS FOR TREATING LEISHMANIASIS” (HOWARD UNIVERSITY, priority 2011, published 2014).
